Legend:
PBMC = assay: Cell proliferation Ex.3; assay type: cell-based
SKNSH = assay: Cell proliferation Ex.3; assay type: cell-based; settings: Homo sapiens, SK-N-SH
Method: A dose response relationship on cell proliferation was assessed for Compound 13 on 140 tumor cell lines. […] Cells were cultured in the appropriate media. For the assays, cells were seeded in white cell culture-treated flat and clear bottom multiwell plates and incubated at 37° C. overnight before compound was added. […] dependent on the medium, cell plates were equilibrated to room temperature for one hour, CellTiterGlo reagent (Promega) was added and luminescence was measured approximately an hour later using a luminometer. Raw data were converted into percent cell viability relative to the high and low control, which were set to 10000 and 000, respectively.

Measured: IC50

C#C[C@]1(CO)O[C@@H](n2cc(F)c(N)nc2=O)C[C@@H]1O [compound 9]
> 10 µM: PBMC; 72 h | PBMC; 120 h | PBMC; 168 h | SKNSH; 72 h | SKNSH; 120 h | SKNSH; 168 h

— patent US20230293526A1, “METHOD FOR TREATING CANCER WITH A REVERSE TRANSCRIPTASE INHIBITOR” (PrimeFour Therapeutics, Inc., priority 2020, published 2023)
